The target in test [1] is T1, Androgen receptor (Homo sapiens) (UniProt P10275).
T1 sequence (whole entry): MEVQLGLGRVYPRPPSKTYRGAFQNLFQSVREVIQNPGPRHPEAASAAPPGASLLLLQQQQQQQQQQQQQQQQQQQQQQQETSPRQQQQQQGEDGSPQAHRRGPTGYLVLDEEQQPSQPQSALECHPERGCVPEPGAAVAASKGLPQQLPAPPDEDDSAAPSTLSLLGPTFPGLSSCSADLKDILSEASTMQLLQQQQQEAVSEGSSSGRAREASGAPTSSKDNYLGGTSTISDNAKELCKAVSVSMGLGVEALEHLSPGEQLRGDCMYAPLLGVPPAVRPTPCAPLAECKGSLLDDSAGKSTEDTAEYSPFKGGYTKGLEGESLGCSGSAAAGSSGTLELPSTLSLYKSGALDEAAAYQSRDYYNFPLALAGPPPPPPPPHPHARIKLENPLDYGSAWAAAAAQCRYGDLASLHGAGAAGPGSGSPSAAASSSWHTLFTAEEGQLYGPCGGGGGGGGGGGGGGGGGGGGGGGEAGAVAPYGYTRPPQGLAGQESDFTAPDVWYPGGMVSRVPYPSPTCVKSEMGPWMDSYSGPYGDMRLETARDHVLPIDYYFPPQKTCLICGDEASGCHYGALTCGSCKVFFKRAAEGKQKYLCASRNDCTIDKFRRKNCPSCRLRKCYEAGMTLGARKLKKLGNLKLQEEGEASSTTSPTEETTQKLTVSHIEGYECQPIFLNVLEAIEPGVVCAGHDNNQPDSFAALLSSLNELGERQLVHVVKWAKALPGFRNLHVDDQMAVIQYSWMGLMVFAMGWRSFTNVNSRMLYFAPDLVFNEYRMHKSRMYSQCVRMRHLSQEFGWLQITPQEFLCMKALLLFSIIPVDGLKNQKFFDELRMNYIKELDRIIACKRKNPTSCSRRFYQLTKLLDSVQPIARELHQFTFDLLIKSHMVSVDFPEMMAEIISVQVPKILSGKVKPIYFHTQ
As to the kind of experiment: Antagonist activity at AR in human LNCAP cells assessed as suppression of DHT-induced receptor transcriptional activity at 500 nM after 24 hrs by dual luciferase reporter gene assay. It counts as cell-based.

Test [2] concerns the target T1, Androgen receptor (Homo sapiens). Conditions: LNCaP, at 5 µM.
Description: Antagonist activity at AR in human LNCAP cells assessed as suppression of DHT-induced receptor transcriptional activity at 5 uM after 24 hrs by dual luciferase reporter gene assay
For test [3], the system named is PC-3. As to the kind of experiment: Agonist activity at AR W741C/T877A double mutant (unknown origin) expressed in human PC3 cells assessed as receptor transactivation at 5 uM after 24 hrs by PSA-luciferase reporter gene assay. The format is cell-based.
In test [4] the target is T1, Androgen receptor (Homo sapiens). As to the kind of experiment: Antagonist activity at AR in human LNCAP cells assessed as downregulation of PSA mRNA levels at 5 uM after 24 hrs in presence of DHT by RT-PCR analysis. It counts as cell-based.
Test [5] addresses T2, Androgen receptor (Rattus norvegicus) (UniProt P15207).
T2 sequence (whole entry): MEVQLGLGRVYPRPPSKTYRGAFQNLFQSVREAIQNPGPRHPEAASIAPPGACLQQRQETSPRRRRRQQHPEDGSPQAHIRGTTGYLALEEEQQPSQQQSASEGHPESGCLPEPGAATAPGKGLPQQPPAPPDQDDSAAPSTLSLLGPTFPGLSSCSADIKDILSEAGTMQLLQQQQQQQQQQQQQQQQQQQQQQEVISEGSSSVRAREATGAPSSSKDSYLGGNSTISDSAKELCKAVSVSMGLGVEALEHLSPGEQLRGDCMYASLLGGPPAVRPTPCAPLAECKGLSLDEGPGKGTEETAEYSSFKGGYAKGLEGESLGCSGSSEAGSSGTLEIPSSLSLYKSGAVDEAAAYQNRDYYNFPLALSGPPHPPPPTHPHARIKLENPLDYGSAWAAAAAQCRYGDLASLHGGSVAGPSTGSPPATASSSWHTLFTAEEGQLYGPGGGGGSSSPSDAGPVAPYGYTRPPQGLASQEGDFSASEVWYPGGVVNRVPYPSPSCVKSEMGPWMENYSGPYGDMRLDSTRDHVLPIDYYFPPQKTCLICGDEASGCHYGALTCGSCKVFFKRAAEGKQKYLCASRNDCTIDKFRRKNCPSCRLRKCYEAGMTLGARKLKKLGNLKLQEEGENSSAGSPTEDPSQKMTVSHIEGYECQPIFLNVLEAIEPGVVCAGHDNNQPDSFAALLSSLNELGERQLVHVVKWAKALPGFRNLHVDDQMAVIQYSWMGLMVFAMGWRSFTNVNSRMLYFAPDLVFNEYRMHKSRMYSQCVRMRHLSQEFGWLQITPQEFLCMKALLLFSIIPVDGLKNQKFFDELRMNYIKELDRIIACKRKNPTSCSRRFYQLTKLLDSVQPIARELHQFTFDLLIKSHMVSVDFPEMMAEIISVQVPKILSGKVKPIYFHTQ
As to the kind of experiment: (§1) Displacement of fluormone-DHT green from His/GST-tagged rat AR ligand binding domain after 4 to 8 hrs by fluorescence polarization assay.

Test [6] concerns the target T3, Androgen receptor (Rattus norvegicus, UniProt P15207).
T3 sequence (P15207 whole entry): T2 sequence (whole entry)
Described as §1.

Test [7] addresses T1, Androgen receptor (Homo sapiens). The experiment in a line: (§2) Antagonist activity at wild type AR in human PC3 cells assessed as suppression of DHT-induced receptor transcriptional activation after 24 hrs by PSA-luciferase reporter gene assay. It counts as cell-based. Conditions: PC-3.
In test [8] the target is T4, Androgen receptor (Homo sapiens, UniProt P10275).
T4 sequence (P10275 whole entry): T1 sequence (whole entry)
Described as §2. It counts as cell-based, PC-3.

Test [9] addresses T1, Androgen receptor (Homo sapiens). The experiment in a line: Antagonist activity at AR in human LNCAP cells assessed as downregulation of AR protein expression after 24 hrs by Western blot analysis. It counts as cell-based.
In test [10] the test system is PC-3. As to the kind of experiment: Cytotoxicity against human PC3 cells assessed as cell growth inhibition after 72 hrs by MTT assay. The format is functional, cell-based.
In test [11] the target is T1, Androgen receptor (Homo sapiens). The experiment in a line: Antagonist activity at AR in human LNCAP cells assessed as downregulation of PSA mRNA levels at 500 nM after 24 hrs in presence of DHT by RT-PCR analysis. It counts as cell-based.
The test system of test [12] is T5, Androgen receptor (Homo sapiens), P10275 [F877L].
T5 sequence (whole entry): T1 sequence (whole entry) with F877L
As to the kind of experiment: Antagonist activity at AR F876L mutant (unknown origin) transfected in human PC3 cells assessed as suppression of DHT-induced receptor transcriptional activity at 500 nM after 24 hrs by PSA-luciferase reporter gene assay. It counts as cell-based. To be noted: PC-3.

Test [13] in a line: cells. Conditions: Homo sapiens, PC-3, 24 h.
Description: Antagonist activity at AR W741C/T877A double mutant (unknown origin) transfected in human PC3 cells assessed as inhibition of DHT-induced receptor transcriptional activation after 24 hrs by PSA-luciferase reporter gene assay
The subject of test [14] is LNCaP. The experiment in a line: Cytotoxicity against human LNCAP cells assessed as cell growth inhibition after 72 hrs by MTT assay. It counts as functional, cell-based.
The target of test [15] is Androgen receptor (Homo sapiens, UniProt P10275, T878A). As to the kind of experiment: (§3) Antagonist activity at AR T877A mutant (unknown origin) transfected in human PC3 cells assessed as inhibition of DHT-induced receptor transcriptional activation after 24 hrs by PSA-luciferase reporter gene assay. It counts as cell-based, PC-3.
In test [16] the test system is Androgen receptor (Homo sapiens), P10275 [T878A]. Described as §3. Conditions: PC-3. The format is cell-based.
Test [17] addresses Androgen receptor (Homo sapiens, UniProt P10275, F877L). As to the kind of experiment: (§4) Antagonist activity at AR F876L mutant (unknown origin) expressed in human PC3 cells assessed as inhibition of DHT-induced receptor transactivation after 24 hrs by PSA-luciferase reporter gene assay. It counts as cell-based, PC-3.
For test [18], the system named is T5, Androgen receptor (Homo sapiens), P10275 [F877L]. The description is as §4. It counts as cell-based. To be noted: PC-3.

Seven compounds from ChEMBL document CHEMBL3862039 (ACS Med Chem Lett, 2016) can be followed below.

Numbering of substitutions follows the chain as printed. Calls of active or inactive are those of the source. The calls are words filed in the database; no cut-off is given here.

Sequence of Androgen receptor (Homo sapiens, UniProt P10275, F877L) (P10275 whole entry F877L): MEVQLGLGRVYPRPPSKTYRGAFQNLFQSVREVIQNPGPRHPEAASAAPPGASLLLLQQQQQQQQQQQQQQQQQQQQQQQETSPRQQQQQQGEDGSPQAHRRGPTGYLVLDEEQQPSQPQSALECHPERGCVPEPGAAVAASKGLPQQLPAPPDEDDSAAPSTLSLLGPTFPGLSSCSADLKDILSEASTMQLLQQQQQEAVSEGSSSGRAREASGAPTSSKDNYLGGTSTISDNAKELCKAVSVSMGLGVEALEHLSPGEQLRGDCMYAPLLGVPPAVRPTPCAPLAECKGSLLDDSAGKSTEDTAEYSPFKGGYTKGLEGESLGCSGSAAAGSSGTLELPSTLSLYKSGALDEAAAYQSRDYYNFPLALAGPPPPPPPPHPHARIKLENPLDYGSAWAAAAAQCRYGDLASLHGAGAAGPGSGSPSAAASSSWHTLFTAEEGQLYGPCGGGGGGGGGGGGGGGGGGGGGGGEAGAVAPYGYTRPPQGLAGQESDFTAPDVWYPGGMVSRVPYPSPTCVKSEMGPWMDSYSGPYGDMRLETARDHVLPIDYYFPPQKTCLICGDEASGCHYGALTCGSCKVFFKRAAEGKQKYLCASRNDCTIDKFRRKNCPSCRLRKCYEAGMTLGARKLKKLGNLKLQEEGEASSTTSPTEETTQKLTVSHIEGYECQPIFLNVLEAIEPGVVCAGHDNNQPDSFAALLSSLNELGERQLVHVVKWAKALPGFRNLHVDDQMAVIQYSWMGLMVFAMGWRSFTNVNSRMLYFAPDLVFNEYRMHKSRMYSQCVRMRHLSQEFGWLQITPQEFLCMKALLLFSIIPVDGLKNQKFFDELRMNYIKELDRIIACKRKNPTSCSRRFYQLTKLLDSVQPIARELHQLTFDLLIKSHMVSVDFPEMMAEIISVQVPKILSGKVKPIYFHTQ
Sequence of Androgen receptor (Homo sapiens), P10275 [T878A] (P10275 whole entry T878A): as the sequence (P10275 whole entry F877L) above, with L877F, T878A counted along it
Sequence of Androgen receptor (Homo sapiens, UniProt P10275, T878A) (P10275 whole entry T878A): as the sequence (P10275 whole entry F877L) above, with L877F, T878A counted along it

Consider `CC(C)[C@]12O[C@H]1[C@@H]1O[C@@]13[C@@]1(C)CCC4=C(COC4=O)[C@@H]1C[C@@H]1O[C@@]13C2=O`, for which the inhibition result in [1] and in [2] was “Active” throughout.

In the case of `CC(C)[C@]12O[C@H]1[C@@H]1O[C@]13[C@]1(O[C@H]1C[C@H]1C4=C(CC[C@@]13C)C(=O)OC4)[C@@H]2O`, the inhibition entry in [1] and in test [2] was “Active” in each case.

On to `CC(O)(CS(=O)(=O)c1ccc(F)cc1)C(=O)Nc1ccc(C#N)c(C(F)(F)F)c1` (stereo not given), for which, in test [3], the result was Active.

Turning to `CC1(C)[C@@H](O)CC[C@]2(C)[C@H]3CC=C4[C@@H]5C[C@@]6(C)C[C@H](OC6=O)[C@]5(C)CC[C@@]4(C)[C@]3(C)CC[C@@H]12`, in [2], the inhibition result is “Active”.

As for `CC1=C(O)C(=O)C=C2C1=CC=C1[C@@]2(C)CC[C@@]2(C)[C@@H]3C[C@](C)(C(=O)O)CC[C@]3(C)CC[C@]12C`, the inhibition result in test [2] was “Active”.

For the compound `C[C@@]1(C(=O)O)CC[C@]2(C)CC[C@]3(C)C4=CC(=O)c5c(cc(O)c(O)c5C=O)[C@]4(C)CC[C@@]3(C)[C@@H]2C1`, in [2], the inhibition entry was “Active”.

With `CC(C)c1ccc2c(c1O)CC[C@H]1C3=C(CC[C@]21C)C(=O)OC3` [TRIPTOPHENOLIDE], the inhibition result in test [4], in test [1], in test [2], in test [11] and in test [12] was “Active” in each case. Also, the inhibition result in test [5], in test [7], in test [9], in [16] and in test [18] was “Dose-dependent effect” throughout. In addition, the half-inhibitory concentration (IC50) in test [6] worked out at 0.467 µM; in test [8], 0.26 µM; in test [13] it was 0.437 µM; in test [15] it was 0.388 µM; in [17] it was 0.48 µM. For the same compound, in test [10], the “growth inhibition (GI)” value is “Active”. Also, the “growth inhibition (GI)” value in test [14] was “Dose-dependent effect”.
